Columns and labels:
[1] = oral administration of the PDE4 inhibitor in COPD: effect and side effects; type: in vivo
[2] = stability of Carbopol-based controlled release tablet versus moisture level; type: physicochemical; settings: moisture removed from the system
Source text: Low moisture levels in certain Carbopol-based controlled release preparations may compromise the stability of the active ingredient cis-4-cyano-4-[3-(cyclopentyloxy)-4-methoxyphenyl]cyclohexane-1-carboxylic acid. High moisture levels may compromise the release rate of such formulations.
It is not known why this occurs when the moisture level is below 0.5% nor is it known how to stop this from occuring, other than to maintain the specified levels of hydration.
The technique for measuring moisture level in this representative tablet was as follows:
The analysis was performed using a Omnimark MARK2 Moisture Analyzer. The Unit determines the moisture content using Infrared heat to dry the sample at a programmed temperature of 120° Celsius with a standby temperature of 80° Celsius. It calculates the percent loss on drying from the initial weight and the final weight of the sample. The results are printed out as % w/w automatically when the analysis is finished. The analysis usually takes 2 to 3 minutes for one measurement of a sample with a moisture level of less than 1.5%w/w.

PDE 4 = assay: IC50 ratio (high/low affinity rolipram binding forms of PDE 4); type: biochemical; settings: IC50 for competing with 1 nM [3H]R-rolipram binding (high affinity form) over IC50 for PDE 4 catalytic activity (low affinity form), 1 uM [3H]-cAMP
Source text: This invention covers controlled release formulations which contain a PDE 4 inhibitor, particularly an inhibitor that is specific for PDE 4. A preferred group of inhibitors are those that have an IC50 ratio (high/low binding) of about 0.1 or greater as further described in co-pending U.S. application Ser. No. 08/456,274, now U.S. Pat. No. 6,143,782 and its published counter-part PCT application serial number published Jan. 05, 1995 as WO95/00139; this application is incorporated herein in full by reference as if fully set forth herein. A preferred standard for PDE 4-specific inhibitors which can be used in this invention is one where the compound has an IC50 ratio of about 0.1 or greater; said ratio being the ratio of the IC50 value for competing with the binding of 1 nM of [^3H]R-rolipram to a form of PDE 4 which binds rolipram with a high affinity over the IC50 value for inhibiting the PDE 4 catalytic activity of a form which binds rolipram with a low affinity using 1 uM[^3H]-cAMP as the substrate.

In the case of `COc1ccc([C@]2(C#N)CC[C@@H](C(=O)O)CC2)cc1OC1CCCC1` [cis-4-cyano-4-[3-(cyclopentyloxy)-4-methoxyphenyl]cyclohexane-1-carboxylic acid], the “therapeutic effect in COPD” value ([1]; administered orally, at certain doses) is reported as “achieve an effective therapeutic effect in COPD at certain doses”, the side effects ([1]; as blood levels increase with increased levels of dosing) is reported as “undesirable side effects such as those attributed to CNS activity begin to be manifested” and the “stability in combination with dibasic calcium phosphate (anhydrous)” value [2] is reported as “appears to be unstable when moisture is removed from the system”. The “therapeutic ratio (IC50 ratio high/low binding)” value (PDE 4) was “greater than 0.1”.
